By pIC50 is commonly meant the negative decadic logarithm of the IC50, by convention in mol/L.

Results on 19 molecules are retold here after ChEMBL document CHEMBL2034957, “Synthesis and antitumor evaluation of novel benzo[d]pyrrolo[2,1-b]thiazole derivatives” (Eur J Med Chem, 2012).

SMILES strings stand for the structures. pIC50: −log10 of the molar value.

For experiment [1], the system named is CCRF-CEM. Put plainly: Cytotoxicity against human CCRF-CEM cells after 72 hrs by XTT assay. The class given is functional, cell-based. A general note: Tetrazolium dyes change colour on reduction, which living cells bring about.
The subject of experiment [2] is CCRF-CEM. In words: Cytotoxicity against human taxol-resistant CCRF-CEM cells after 72 hrs by XTT assay. Format: functional, cell-based.
For experiment [3], the system named is CCRF-CEM. Put plainly: Cytotoxicity against human vinblastine-resistant CCRF-CEM cells after 72 hrs by XTT assay. The class given is functional, cell-based.
Experiment [4] is described as follows: Cytotoxicity against human H1299 cells after 72 hrs by alamar blue assay. The class given is functional, cell-based. The note with it: NCI-H1299, 72 h.
The subject of another experiment is PC-3. In words: Cytotoxicity against human PC3 cells after 72 hrs by alamar blue assay. Format: functional, cell-based. The note with it: PC-3, 72 h.
Experiment [5] is described as follows: Cytotoxicity against human OECM1 cells after 72 hrs by alamar blue assay. Format: functional, cell-based. The note with it: OECM1, 72 h.
Experiment [6] in a line: Cytotoxicity against human U87 cells after 72 hrs by alamar blue assay. The class given is functional, cell-based, U-87MG ATCC. Conditions: U-87 MG. Background: Resazurin is reduced to fluorescent resorufin, in cell work by metabolically active cells.
The test system of experiment [7] is CCRF-CEM. In words: Ratio of IC50 for human taxol-resistant CCRF-CEM cells to IC50 for human CCRF-CEM cells. Format: functional.
Experiment [8] deals with CCRF-CEM. Put plainly: Ratio of IC50 for human vinblastine-resistant CCRF-CEM cells to IC50 for human CCRF-CEM cells. The class given is functional.

Take `COc1cc(-c2c(COC(=O)NC(C)C)c(COC(=O)NC(C)C)c3sc4ccccc4n23)cc(OC)c1OC`: the pIC50 in the experiment with CCRF-CEM [1] is 5.98.
For the molecule `OCc1c(CO)c2sc3ccccc3n2c1-c1ccc(F)c(F)c1`, the pIC50 with CCRF-CEM [1] was 6.72; in the experiment on CCRF-CEM [2] it was 6.72; with CCRF-CEM [3], 6.55; in experiment [4], 4.67; in the experiment on PC-3, 4.82; in experiment [5] it was 5.07. In experiment [6], this molecule had a pIC50 of 4.76. The “Ratio IC50” value was found to be 1 in the experiment with CCRF-CEM [7] and 1.47 in the experiment with CCRF-CEM [8].
In the experiment on CCRF-CEM [1], `CCNC(=O)OCc1c(COC(=O)NCC)c2sc3ccccc3n2c1-c1ccc(OC)c(OC)c1` showed a negative-log IC50 (pIC50) of 6.31.
Regarding `CC(C)NC(=O)OCc1c(COC(=O)NC(C)C)c2sc3ccccc3n2c1C1CC1`, the pIC50 in the experiment on CCRF-CEM [1] is 7.00; in the experiment with CCRF-CEM [2] it was 6.14; with CCRF-CEM [3], 6.05; in [4], 4.69; in the experiment on PC-3 it was 4.87; in [5], 5.01. In experiment [6], this molecule showed a negative logarithm of the IC50 (pIC50) of 4.34. Further, the “Ratio IC50” value with CCRF-CEM [7] came out at 7.3; in the experiment with CCRF-CEM [8], 9.
On to `CC(C)NC(=O)OCc1c(COC(=O)NC(C)C)c2sc3ccccc3n2c1-c1ccc(F)c(Cl)c1`, for which the pIC50 in the experiment with CCRF-CEM [1] was 6.30.
With `CCNC(=O)OCc1c(COC(=O)NCC)c2sc3ccccc3n2c1C`, the pIC50 in the experiment with CCRF-CEM [1] was 6.48; in the experiment with CCRF-CEM [2] it was 6.35; with CCRF-CEM [3], 6.37. The “Ratio IC50” value with CCRF-CEM [7] and in the experiment with CCRF-CEM [8] was 1.3 each time.
Consider `CCNC(=O)OCc1c(COC(=O)NCC)c2sc3ccccc3n2c1C1CC1`, for which the pIC50 in the experiment with CCRF-CEM [1] is 6.77; with CCRF-CEM [2], 6.17; in the experiment on CCRF-CEM [3] it was 6.27; in experiment [4], 4.69; with PC-3 it was 4.62; in experiment [5], 4.58. Besides, the pIC50 in experiment [6] is 4.13. Moreover, the figures for the “Ratio IC50” value with CCRF-CEM [7] and in the experiment with CCRF-CEM [8] were 4.01 and 3.18, respectively.
Molecule `CC(C)NC(=O)OCc1c(COC(=O)NC(C)C)c2sc3ccccc3n2c1-c1ccc(Cl)c(Cl)c1` gave a pIC50 in the experiment with CCRF-CEM [1] of 5.64.
Still for that read-out and setting: under `CCNC(=O)OCc1c(COC(=O)NCC)c2sc3ccccc3n2c1-c1ccc(Cl)c(Cl)c1` stands 6.42.
`CC(=O)O[C@H]1C(=O)[C@@]2(C)[C@H]([C@H](OC(=O)c3ccccc3)[C@]3(O)C[C@H](OC(=O)[C@H](O)[C@@H](NC(=O)c4ccccc4)c4ccccc4)C(C)=C1C3(C)C)[C@]1(OC(C)=O)CO[C@@H]1C[C@@H]2O` [PACLITAXEL]: the “Ratio IC50” value with CCRF-CEM [7] came to 358; with CCRF-CEM [8], 980.
Regarding `CCNC(=O)OCc1c(COC(=O)NCC)c2sc3ccccc3n2c1-c1cc(OC)c(OC)c(OC)c1`, in the experiment with CCRF-CEM [1], the pIC50 was 6.49.
In the experiment on CCRF-CEM [1], `OCc1c(CO)c2sc3ccccc3n2c1-c1ccc(Cl)c(Cl)c1` had a negative logarithm of the IC50 (pIC50) of 5.98.
As to `CC[C@]1(O)C[C@@H]2CN(CCc3c([nH]c4ccccc34)[C@@](C(=O)OC)(c3cc4c(cc3OC)N(C)[C@H]3[C@@](O)(C(=O)OC)[C@H](OC(C)=O)[C@]5(CC)C=CCN6CC[C@]43[C@@H]65)C2)C1` [VINBLASTINE], the “Ratio IC50” value with CCRF-CEM [7] was 106; in the experiment with CCRF-CEM [8], 680.
In the case of `COc1cc(-c2c(CO)c(CO)c3sc4ccccc4n23)cc(OC)c1OC`, the pIC50 with CCRF-CEM [1] was 5.39.
Same read-out and setting: under `COc1ccc(-c2c(COC(=O)NC(C)C)c(COC(=O)NC(C)C)c3sc4ccccc4n23)cc1OC` stands 6.96.
Same read-out and setting: in the case of `COc1ccc(-c2c(CO)c(CO)c3sc4ccccc4n23)cc1OC` it was 5.74.
Consider `OCc1c(CO)c2sc3ccccc3n2c1C1CC1`, for which the pIC50 in the experiment with CCRF-CEM [1] was 6.01; in the experiment on CCRF-CEM [2], 5.64; in the experiment on CCRF-CEM [3], 5.61; in experiment [4] it was 4.88; in the experiment on PC-3 it was 4.97; in [5] it was 5.15. In addition, the negative-log IC50 (pIC50) in experiment [6] was 4.54. The “Ratio IC50” value was 2.37 in the experiment with CCRF-CEM [7] and 2.51 in the experiment on CCRF-CEM [8].
`CCNC(=O)OCc1c(COC(=O)NCC)c2sc3ccccc3n2c1-c1ccc(F)c(Cl)c1` had a pIC50 in the experiment on CCRF-CEM [1] of 6.42.
In the experiment on CCRF-CEM [1], `OCc1c(CO)c2sc3ccccc3n2c1-c1ccc(F)c(Cl)c1` showed a pIC50 of 5.51.
